Patent US9718790B2, “Triazine derivative and pharmaceutical composition having an analgesic activity comprising the same” (SHIONOGI & CO., LTD., priority 2010, dated 2017)

Columns and labels:
rat P2X3 receptor [1] = target: T1, rat P2X3 receptor (Rattus norvegicus (Rat), UniProt P49654); assay: Evaluation of rat P2X3 receptor inhibitory activity in the presence of rat serum albumin (1% RSA); type: cell-based
Experimental: Rat P2X3 receptor gene (GenBank accession number NM_031075) was expressed in C6BU-1 cell. The cells stably expressing rat P2X3 were seeded in a 96-well microtiter plate at a :concentration of 8000 cells/well and cultured in the medium (8.3% fetal bovine serum, 8.3% horse serum, 1% antibiotic and antifungal in DMEM) for one day at 37° C. under 5% carbon dioxide atmosphere. In transiently expressing system, the C6BU-1 cells were seeded in a 96-well microtiter plate at a concentration of 2500 cells/well and cultured in the medium for one day at 37° C. under 5% carbon dioxide atmosphere. The plasmid was transfected into the cells using transfection reagent FuGENE6 (Roche). The transfected cells were cultured in the medium for one day at 37° C. under 5% carbon dioxide atmosphere. […] Measurement of fluorescence intensity by FDSS 3000 was started, and 40 μL of DMSO solutions containing 1% RSA (final concentrations) and different concentrations of the test compound as prepared by dilution with dilution buffer (20 mM HEPES, 137 mM NaCl, 2.7 mM KCl, 0.9 mM MgCl2, 5.0 mM CaCl2, 5.0 mM D-glucose, 2.5 mM probenecid, 0.1% Pluronic F-127, pH 7.5) were dispensed to each well through the built-in automatic dispenser. Five minutes after, 50 nM ATP solution (50 μL) prepared by dilution with the dilution buffer was dispensed through the built-in automatic dispenser, and the measurement of fluorescence intensity was continued for 3 min. For each well, the specific maximum fluorescence intensity was calculated as the ratio of the maximum fluorescence intensity after addition of the ATP solution to the fluorescence intensity at the starting of the measurement. […] FDSS software (Hamamatsu Photonics K.K.) was used for calculation of the specific maximum fluorescence intensity. IC50 was calculated using Microsoft Excel (Microsoft Corporation) and XLfit (idbs Ltd.).

rat P2X3 receptor [2] = target: T1, rat P2X3 receptor; assay: Evaluation of rat P2X3 receptor inhibitory activity (Fluo-3 calcium fluorescence, FDSS 3000, ATP stimulation); type: cell-based
Experimental: Rat P2X3 receptor gene (GenBank accession number NM_031075) was expressed in C6BU-1 cell. The cells stably expressing rat P2X3 were seeded in a 96-well microtiter plate at a concentration of 8000 cells/well and cultured in the medium (8.3% fetal bovine serum. 8.3% horse serum, 1% antibiotic and antifungal in DMEM) for one day at 37° C. under 5% carbon dioxide atmosphere. In transiently expressing system, the C6BU-1 cells were seeded in a […] at a concentration of 2500 cells/well and cultured in the medium for one day at 37° C. under 5% carbon dioxide atmosphere. The plasmid was transfected into the cells using transfection reagent FuGENE6 (Roche). The transfected cells were cultured in the medium for one day at 37° C. under 5% carbon dioxide atmosphere. […] Measurement of fluorescence intensity by FDSS 3000 was started, and 40 μL of DMSO solutions containing different concentrations of the test compound as prepared by dilution with dilution buffer (20 mM HEPES, 137 mM NaCl, 2.7 mM KCl, 0.9 mM MgCl2, 5.0 mM CaCl2, 5.6 mM D-glucose, 2.5 mM probenecid, 0.1% Pluronic F-127, pH 7.5) were dispensed to each well through the built-in automatic dispenser. Five minutes after, […] ATP solution (50 μL) prepared by dilution with the dilution buffer was dispensed through the built-in automatic dispenser, and the measurement of fluorescence intensity was continued for 3 min. For each well, the specific maximum fluorescence intensity was calculated as the ratio of the maximum fluorescence intensity after addition of the ATP solution to the fluorescence intensity at the starting of the measurement. […] FDSS software (Hamamatsu Photonics K.K.) was used for calculation of the specific maximum fluorescence intensity. IC50 was calculated using Microsoft Excel (Microsoft Corporation) and XLfit (idbs Ltd.).

CYP2D6 = CYP2D6 (Homo sapiens (Human), UniProt P10635); assay: CYP inhibition test, pooled human hepatic microsome, dextromethorphan O-demethylation; type: in vitro ADME; settings: substrate dextromethorphan
Chain of CYP2D6 (P10635 whole entry): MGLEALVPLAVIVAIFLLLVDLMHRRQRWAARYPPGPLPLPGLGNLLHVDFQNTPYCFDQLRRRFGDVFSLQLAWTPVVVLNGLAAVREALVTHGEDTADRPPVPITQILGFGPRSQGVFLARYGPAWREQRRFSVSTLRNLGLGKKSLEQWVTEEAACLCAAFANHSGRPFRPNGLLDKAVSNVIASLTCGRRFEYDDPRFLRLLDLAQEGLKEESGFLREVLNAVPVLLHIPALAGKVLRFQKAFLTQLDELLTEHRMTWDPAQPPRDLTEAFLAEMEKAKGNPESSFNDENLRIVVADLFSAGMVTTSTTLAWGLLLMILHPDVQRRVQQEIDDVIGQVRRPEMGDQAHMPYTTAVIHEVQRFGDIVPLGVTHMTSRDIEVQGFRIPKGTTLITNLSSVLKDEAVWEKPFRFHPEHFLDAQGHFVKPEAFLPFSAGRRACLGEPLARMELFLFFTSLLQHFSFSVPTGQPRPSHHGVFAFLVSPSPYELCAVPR
Experimental: Using commercially available pooled human hepatic microsome, and employlng, as markers, 7-ethoxyresorufin O-deethylation (CYP1A2), tolbutamide methyl-hydroxylation (CYP2C9), mephenyloin 4′-hydroxylation (CYP2C19), dextromethorphan O-demethylation (CYP2D6), and terfenedine hydroxylation as typical substrate metabolism reactions of human main five CYP enzyme forms (CYP1A2, 2C9, 2C19, 2D6, 3A4), an inhibitory degree of each metabolite production amount by a test compound was assessed.
The reaction conditions were as follows: substrate, 0.5 μmol/L ethoxyresorufin (CYP1A2), 100 μmol/L tolbutamide (CYP2C9), 50 μmol/L S-mephenitoin (CYP2C19), 5 μmol/L dextromethorphan (CYP2D6), 1 μmol/L terfenedine (CYP3A4) reaction time, 15 minutes; reaction temperature, 37° C; enzyme, pooled human hepatic microsome 0.2 mg protein/mL; test drug concentration, 1.0, 5.0, 10, 20 μmol/L (four points).
Each five kinds of substrates, human hepatic microsome, or a test drug in 50 mmol/L Hepes buffer as a reaction solution was added to a 96-well plate at the composition as described above, NADPH, as a cofactor was added to initiate metabolism reactions as markers and, after the incubation at 37° C. for 15 minutes, a methanol/acetonitrile=1/1 (v/v) solution was added to stop the reaction. After the centrifugation at 3000 rpm for 15 minutes, resorufin (CYP1A2 metabolite) in the supernatant was quantified by a fluorescent multilabel counter and tributamide hydroxide (CYP2CP metabolite), mephenyloin 4′ hydroxide (CYP2C19 metabolite), […] (CYP2D6 metabolite), and terfenadine alcohol (CYP3A4 metabolite) were quantified by LC/MS/MS.

T1 sequence (P49654 whole entry): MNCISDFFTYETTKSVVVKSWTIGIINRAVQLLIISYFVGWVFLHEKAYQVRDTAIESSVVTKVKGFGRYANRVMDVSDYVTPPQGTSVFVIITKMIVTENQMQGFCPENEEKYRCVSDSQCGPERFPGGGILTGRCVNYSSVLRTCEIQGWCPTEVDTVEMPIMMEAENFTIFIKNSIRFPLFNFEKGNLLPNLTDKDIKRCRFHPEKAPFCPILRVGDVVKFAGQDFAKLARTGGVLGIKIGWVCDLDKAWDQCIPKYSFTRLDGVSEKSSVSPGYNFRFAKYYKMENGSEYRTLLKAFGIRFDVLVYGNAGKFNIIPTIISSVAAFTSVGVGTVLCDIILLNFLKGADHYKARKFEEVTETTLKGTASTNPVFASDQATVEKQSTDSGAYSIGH

Row | SMILES | rat P2X3 (+RSA) IC50 (rat P2X3 receptor [1]) | IC50 (rat P2X3 receptor [2]) | IC50 (CYP2D6)
1 | O=c1[nH]/c(=N\c2ccc(Oc3ccon3)cc2)n(Cc2ccc(Cl)cc2)c(=O)n1CC(CO)CO [Compound I-2291] | 0.02 µM | 0.003 µM | > 20 µM
2 | CCn1c(=O)[nH]/c(=N\c2ccc(Oc3ccnc(C(=O)O)c3)cc2)n(Cc2ccc(Cl)cc2)c1=O [Compound I-1788] | 0.059 µM | 0.005 µM | > 20 µM
3 | C[C@@H](Cn1c(=O)[nH]/c(=N\c2ccc(OCC3CC3)cc2)n(Cc2ccc(Cl)cc2)c1=O)C(=O)O [Compound I-0837] | 0.044 µM | 0.019 µM | > 20 µM
